Results on 40 molecules are retold here after patent US10807985B2 (Blueprint Medicines Corporation, priority 2013, dated 2020).

For one test, the target named is D816V KIT (Homo sapiens (Human), UniProt P10721, D816V). As to the kind of experiment: KIT D816V assay at Km (Caliper electrophoretic mobility shift). To be noted: biochemical, 15 uM ATP (Km), 90 minutes at 25 C; read-out: INH KIT D816V.
For another test, the target named is PDGFRA D842V (Homo sapiens (Human), UniProt P16234, D842V). Kind of test: PDGFRA D842V assay at Km (Caliper electrophoretic mobility shift). To be noted: biochemical, 15 uM ATP (Km), 90 minutes at 25 C; read-out: INH PDFGRA D842V.
Sequence of PDGFRA D842V (P16234 24-1089 D842V): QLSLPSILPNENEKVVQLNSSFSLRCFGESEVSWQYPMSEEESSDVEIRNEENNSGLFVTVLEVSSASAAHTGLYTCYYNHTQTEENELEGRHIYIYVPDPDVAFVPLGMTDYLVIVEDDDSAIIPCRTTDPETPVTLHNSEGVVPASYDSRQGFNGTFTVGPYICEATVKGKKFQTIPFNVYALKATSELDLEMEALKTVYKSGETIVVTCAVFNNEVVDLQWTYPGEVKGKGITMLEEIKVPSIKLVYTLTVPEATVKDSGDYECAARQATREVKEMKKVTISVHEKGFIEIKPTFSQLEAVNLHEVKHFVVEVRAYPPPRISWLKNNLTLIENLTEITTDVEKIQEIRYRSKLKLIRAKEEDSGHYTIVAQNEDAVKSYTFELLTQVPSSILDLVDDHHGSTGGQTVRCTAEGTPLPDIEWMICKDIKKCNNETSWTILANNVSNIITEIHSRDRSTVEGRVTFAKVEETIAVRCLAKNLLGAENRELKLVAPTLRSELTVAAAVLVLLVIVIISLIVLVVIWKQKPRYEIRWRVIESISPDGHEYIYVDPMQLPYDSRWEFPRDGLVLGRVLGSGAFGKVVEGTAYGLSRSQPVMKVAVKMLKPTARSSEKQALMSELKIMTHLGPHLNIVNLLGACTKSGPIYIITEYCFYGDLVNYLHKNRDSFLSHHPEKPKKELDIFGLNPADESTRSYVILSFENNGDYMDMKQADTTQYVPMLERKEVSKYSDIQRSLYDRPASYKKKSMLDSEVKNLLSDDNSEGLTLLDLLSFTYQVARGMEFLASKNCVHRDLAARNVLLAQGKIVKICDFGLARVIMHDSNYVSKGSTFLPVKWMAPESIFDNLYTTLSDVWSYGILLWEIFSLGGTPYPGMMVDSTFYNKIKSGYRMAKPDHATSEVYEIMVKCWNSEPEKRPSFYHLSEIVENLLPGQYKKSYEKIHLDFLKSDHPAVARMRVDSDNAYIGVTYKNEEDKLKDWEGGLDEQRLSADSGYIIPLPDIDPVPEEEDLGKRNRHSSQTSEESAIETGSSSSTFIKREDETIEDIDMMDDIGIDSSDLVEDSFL
For test [1], the target named is KIT D816V kinase activity (KIT autophosphorylation at tyrosine 719) in HMC1.2 cells (Homo sapiens (Human), UniProt P10721, D816V/V560G). Kind of test: HMC1.2 autophosphorylation assay (phospho-Y719 c-KIT AlphaLISA). Format: cell-based. To be noted: HMC1.2 mast cell leukemia cell line (KIT V560G, D816V), 90 minutes compound; read-out: INH-KIT-PHOS-HMC1.2.
Sequence of KIT D816V kinase activity (KIT autophosphorylation at tyrosine 719) in HMC1.2 cells (P10721 26-976 V560G/D816V): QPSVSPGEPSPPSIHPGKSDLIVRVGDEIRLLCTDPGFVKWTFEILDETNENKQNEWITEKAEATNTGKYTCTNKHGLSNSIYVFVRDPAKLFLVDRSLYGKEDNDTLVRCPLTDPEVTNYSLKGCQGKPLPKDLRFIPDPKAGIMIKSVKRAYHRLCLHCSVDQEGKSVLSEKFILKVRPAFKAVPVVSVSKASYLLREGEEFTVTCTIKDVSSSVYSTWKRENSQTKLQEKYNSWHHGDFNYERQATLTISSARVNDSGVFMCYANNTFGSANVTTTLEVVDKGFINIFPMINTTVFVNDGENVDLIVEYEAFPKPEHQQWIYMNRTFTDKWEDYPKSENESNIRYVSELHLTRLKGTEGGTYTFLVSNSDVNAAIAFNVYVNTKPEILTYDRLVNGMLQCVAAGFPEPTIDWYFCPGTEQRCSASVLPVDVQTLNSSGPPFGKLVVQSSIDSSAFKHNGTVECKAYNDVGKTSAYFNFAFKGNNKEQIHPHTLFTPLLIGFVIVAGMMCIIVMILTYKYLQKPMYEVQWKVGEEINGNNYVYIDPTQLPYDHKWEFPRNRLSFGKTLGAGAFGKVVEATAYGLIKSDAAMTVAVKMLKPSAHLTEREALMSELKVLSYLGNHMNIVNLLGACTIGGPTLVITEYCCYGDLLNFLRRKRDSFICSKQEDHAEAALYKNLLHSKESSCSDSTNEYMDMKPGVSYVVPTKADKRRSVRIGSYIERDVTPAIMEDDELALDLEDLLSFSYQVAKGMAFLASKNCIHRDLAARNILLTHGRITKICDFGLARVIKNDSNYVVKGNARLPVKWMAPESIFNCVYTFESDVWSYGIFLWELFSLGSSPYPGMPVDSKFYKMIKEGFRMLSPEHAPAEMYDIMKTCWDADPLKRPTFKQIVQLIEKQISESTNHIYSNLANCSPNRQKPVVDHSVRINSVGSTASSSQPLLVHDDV

Sequence of D816V KIT (P10721 26-976 D816V): as the sequence (P10721 26-976 V560G/D816V) above, with G535V counted along it

For `CC[C@@H](c1ccc(F)cc1)c1cnc(N2CCN(c3ncnn4cc(-c5cnn(C)c5)cc34)CC2)nc1` (single isomer, unassigned) [Compound 41], the IC50 was in the range of 1.01 to 10 nM at D816V KIT, 1.01 to 10 nM on PDGFRA D842V and 50 to 100 nM in test [1].
On to `C[C@H](c1ccccc1)c1cnc(N2CCN(c3ncnn4cc(-c5cnn(C)c5)cc34)CC2)nc1` [Compound 9, (R)-6-(1-methyl-1H-pyrazol-4-yl)-4-(4-(5-(1-phenylethyl)pyrimidin-2-yl)piperazin-1-yl)pyrrolo[1,2-f][1,2,4]triazine], for which the IC50 is 1.01 to 10 nM on D816V KIT, 1.01 to 10 nM at PDGFRA D842V and below 50 nM in test [1].
On to `C[C@@H](c1ccccc1)c1cnc(N2CCN(c3ncnn4cc(-c5cnn(C)c5)cc34)CC2)nc1` [Compound 10, (S)-6-(1-methyl-1H-pyrazol-4-yl)-4-(4-(5-(1-phenylethyl)pyrimidin-2-yl)piperazin-1-yl)pyrrolo[1,2-f][1,2,4]triazine], for which the results for the IC50 (at D816V KIT; on PDGFRA D842V; in test [1]) were below 1 nM, below 1 nM and below 50 nM, respectively.
Turning to `Cn1cc(-c2cc3c(N4CCN(c5ncc(Cc6ccc(F)cc6)cn5)CC4)ncnn3c2)cn1` [Compound 14], the IC50 at D816V KIT was below 1 nM; on PDGFRA D842V, 1.01 to 10 nM; in test [1], below 50 nM.
The like results for `COc1ccc(-c2cc3c(N4CCN(c5ncc(Cc6ccccc6)cn5)CC4)ncnn3c2)cc1` [Compound 18] were, in that order, 10 to 100 nM, 10 to 100 nM and above 10000 nM.
As to `Cn1cc(-c2cc3c(N4CCN(c5ncc(C(C)(C)c6ccccc6)cn5)CC4)ncnn3c2)cn1` [Compound 20], the figures for the IC50 (at D816V KIT; on PDGFRA D842V; in test [1]) were 1.01 to 10 nM, 1.01 to 10 nM and below 50 nM, respectively.
Consider `Cn1cc(-c2cc3c(N4CCN(c5ncc([C@](C)(N)c6ccccc6)cn5)CC4)ncnn3c2)cn1` [Compound 21], for which the IC50 was 1.01 to 10 nM at D816V KIT, below 1 nM at PDGFRA D842V and 50 to 100 nM in test [1].
On the same counts, the results for `Cn1cc(-c2cc3c(N4CCN(c5ncc([C@@](C)(N)c6ccccc6)cn5)CC4)ncnn3c2)cn1` [Compound 22] are below 1 nM, below 1 nM and below 50 nM.
The like results for `C[C@](N)(c1ccc(F)cc1)c1cnc(N2CCN(c3ncnn4cc(-c5cn[nH]c5)cc34)CC2)nc1` [Compound 26] were, in that order, below 1 nM, below 1 nM and below 50 nM.
The like results for `C[C@@](O)(c1ccc(F)cc1)c1cnc(N2CCN(c3ncnn4cc(-c5cn[nH]c5)cc34)CC2)nc1` [Compound 29] were, in that order, 1.01 to 10 nM, 1.01 to 10 nM and 50 to 100 nM.
For `C[C@](O)(c1ccc(F)cc1)c1cnc(N2CCN(c3ncnn4cc(-c5cn[nH]c5)cc34)CC2)nc1` [Compound 30], the results for the IC50 (on D816V KIT; at PDGFRA D842V; in test [1]) were below 1 nM, below 1 nM and below 50 nM, respectively.
For the molecule `C[C@](N)(c1ccccc1)c1cnc(N2CCN(c3ncnn4cc(-c5ccc(F)cc5)cc34)CC2)nc1` [Compound 34], the figures for the IC50 (at D816V KIT; at PDGFRA D842V; in test [1]) were below 1 nM, below 1 nM and 50 to 100 nM, respectively.
On to `CCn1cc(-c2cc3c(N4CCN(c5ncc([C@@](C)(N)c6ccccc6)cn5)CC4)ncnn3c2)cn1` [Compound 35], for which the IC50 at D816V KIT was below 1 nM; at PDGFRA D842V, below 1 nM; in test [1], below 50 nM.
With `C[C@](O)(c1ccc(F)cc1)c1cnc(N2CCN(c3ncnn4cc(-c5ccccc5)cc34)CC2)nc1` [Compound 38], the IC50 on D816V KIT fell in the range of 1.01 to 10 nM; on PDGFRA D842V, 1.01 to 10 nM; in test [1], 50 to 100 nM.
For the molecule `Cn1cc(-c2cc3c(N4CCN(c5ncc(C(C)(C)c6ccc(F)cc6)cn5)CC4)ncnn3c2)cn1` [Compound 39], the IC50 at D816V KIT was 1.01 to 10 nM; at PDGFRA D842V it was below 1 nM; in test [1], below 50 nM.
Turning to `Cn1cc(-c2cc3c(N4CCN(c5ncc([C@](C)(O)c6ccc(F)cc6)cn5)CC4)ncnn3c2)cn1` [Compound 45], the IC50 on D816V KIT is below 1 nM; on PDGFRA D842V, below 1 nM; in test [1], below 50 nM.
Take `C[C@](O)(c1cnc(N2CCN(c3ncnn4cc(-c5cn[nH]c5)cc34)CC2)nc1)c1ccc(F)cc1F` [Compound 57]: the IC50 on D816V KIT is below 1 nM; on PDGFRA D842V, 1.01 to 10 nM; in test [1] it was below 50 nM.
Take `C[C@@](O)(c1cnc(N2CCN(c3ncnn4cc(-c5cn[nH]c5)cc34)CC2)nc1)c1ccc(F)cc1F` [Compound 58]: the IC50 on D816V KIT and at PDGFRA D842V was below 1 nM throughout.
`C[C@](N)(c1ccc(F)cc1)c1cnc(N2CCN(c3ncnn4cc(-c5ccc(F)cc5)cc34)CC2)nc1` [Compound 62]: the values for the IC50 (on D816V KIT; on PDGFRA D842V; in test [1]) were 1.01 to 10 nM, 1.01 to 10 nM and 50 to 100 nM, respectively.
For `C[C@](O)(c1ccc(F)cc1)c1cnc(N2CCN(c3ncnn4cc(-c5ccc(F)cc5)cc34)CC2)nc1` [Compound 65], the values for the IC50 (on D816V KIT; on PDGFRA D842V; in test [1]) were 1.01 to 10 nM, 1.01 to 10 nM and 100 to 1000 nM, respectively.
On to `CO[C@](C)(c1ccc(F)cc1)c1cnc(N2CCN(c3ncnn4cc(-c5cnn(C)c5)cc34)CC2)nc1` [Compound 68], for which the IC50 was 1.01 to 10 nM on D816V KIT, 1.01 to 10 nM on PDGFRA D842V and below 50 nM in test [1].
As for `C[C@@H]1CN(c2ncnn3cc(-c4cnn(C)c4)cc23)CCN1c1ncc([C@](C)(O)c2ccc(F)cc2)cn1` [Compound 76], the results for the IC50 (at D816V KIT; on PDGFRA D842V; in test [1]) were 1.01 to 10 nM, 1.01 to 10 nM and 50 to 100 nM, respectively.
In the case of `C[C@@H]1CN(c2ncnn3cc(-c4cnn(C)c4)cc23)CCN1c1ncc([C@@](C)(O)c2ccc(F)cc2)cn1` [Compound 77], the figures for the IC50 (at D816V KIT; at PDGFRA D842V; in test [1]) were 1.01 to 10 nM, below 1 nM and below 50 nM, respectively.
For `Cn1cc(-c2cc3c(N4CCN(c5ncc([C@@](C)(CO)c6ccc(F)cc6)cn5)CC4)ncnn3c2)cn1` [Compound 78], the results for the IC50 (on D816V KIT; on PDGFRA D842V; in test [1]) were below 1 nM, below 1 nM and below 50 nM, respectively.
In the case of `Cn1cc(-c2cc3c(N4CCN(c5ncc([C@](C)(CO)c6ccc(F)cc6)cn5)CC4)ncnn3c2)cn1` [Compound 79], the values for the IC50 (on D816V KIT; at PDGFRA D842V; in test [1]) were 1.01 to 10 nM, below 1 nM and below 50 nM, respectively.
For `Cn1cc(-c2cc3c(N4CCN(c5ncc([C@](C)(O)c6ccc(Cl)cc6)cn5)CC4)ncnn3c2)cn1` [Compound 84], the IC50 is 1.01 to 10 nM at D816V KIT, 1.01 to 10 nM at PDGFRA D842V and below 50 nM in test [1].
As to `Cn1cc(-c2cc3c(N4CCN(c5ncc([C@](C)(N)c6ccc(F)cc6F)cn5)CC4)ncnn3c2)cn1` [Compound 86], the IC50 on D816V KIT was below 1 nM; on PDGFRA D842V it was below 1 nM; in test [1] it was below 50 nM.
`Cc1ncc(-c2cc3c(N4CCN(c5ncc([C@](C)(O)c6ccc(F)cc6)cn5)CC4)ncnn3c2)s1` [Compound 87]: the IC50 lay in the range of 1.01 to 10 nM on D816V KIT, 1.01 to 10 nM on PDGFRA D842V and 100 to 1000 nM in test [1].
As for `Cn1cc(-c2cc3c(N4CCN(c5ncc([C@@](C)(O)c6ccc(F)cc6F)cn5)CC4)ncnn3c2)cn1` [Compound 94], the IC50 at D816V KIT was below 1 nM; on PDGFRA D842V it was below 1 nM; in test [1], below 50 nM.
For `Cn1cc(-c2cc3c(N4CCN(c5ncc([C@](O)(CF)c6ccc(F)cc6)cn5)CC4)ncnn3c2)cn1` [Compound 96], the IC50 is below 1 nM on D816V KIT, below 1 nM on PDGFRA D842V and below 50 nM in test [1].
For `Cn1cc(-c2cc3c(N4CCN(c5ncc(Sc6ccccc6F)cn5)[C@H](CO)C4)ncnn3c2)cn1` [Compound 97], the IC50 is 1.01 to 10 nM at D816V KIT, 1.01 to 10 nM at PDGFRA D842V and below 50 nM in test [1].
As for `CN(C)C(=O)c1ccc(-c2cc3c(N4CCN(c5ncc(Cc6ccccc6)cn5)CC4)ncnn3c2)cc1` [Compound 98], the figures for the IC50 (on D816V KIT; at PDGFRA D842V; in test [1]) were below 1 nM, below 1 nM and 100 to 1000 nM, respectively.
Take `O[C@@](c1ccc(F)cc1)(c1cnc(N2CCN(c3ncnn4cc(-c5cn[nH]c5)cc34)CC2)nc1)C(F)F` [Compound 100]: the IC50 at D816V KIT was below 1 nM; on PDGFRA D842V, below 1 nM; in test [1], below 50 nM.
As to `COc1ccc(-c2cc3c(N4CCN(c5ncc([C@@](C)(O)c6ccc(F)cc6)cn5)CC4)ncnn3c2)cc1` [Compound 102], the IC50 at D816V KIT is 1.01 to 10 nM; at PDGFRA D842V it was 1.01 to 10 nM; in test [1] it was 50 to 100 nM.
In the case of `Cn1cc(-c2cc3c(N4CCN(c5ncc([C@@](N)(c6ccc(F)cc6)C(F)F)cn5)CC4)ncnn3c2)cn1` [Compound 111], the IC50 is below 1 nM on D816V KIT, below 1 nM on PDGFRA D842V and below 50 nM in test [1].
Take `Cn1cc(-c2cc3c(N4CCN(c5ncc([C@](C)(O)c6c(F)cc(F)cc6F)cn5)CC4)ncnn3c2)cn1` [Compound 115]: the IC50 on D816V KIT is 1.01 to 10 nM; at PDGFRA D842V it was below 1 nM; in test [1], below 50 nM.
As to `Cn1cc(-c2cc3c(N4CCN(c5ncc([C@@](C)(O)c6c(F)cc(F)cc6F)cn5)CC4)ncnn3c2)cn1` [Compound 116], the IC50 at D816V KIT was below 1 nM; at PDGFRA D842V, below 1 nM; in test [1] it was below 50 nM.
With `Cn1cc(-c2cc3c(N4CCN(c5ncc([C@](O)(c6ccc(F)cc6)C(F)F)cn5)CC4)ncnn3c2)cn1` [Compound 118], the IC50 on D816V KIT lay in the range of 1.01 to 10 nM; in test [1], 100 to 1000 nM.
On the same counts, the results for `c1ccc(Cc2cnc(N3CCN(c4ncnn5cc(-c6cnn(C[C@@H]7CNCCO7)c6)cc45)CC3)nc2)cc1` [Compound 120] are below 1 nM and 50 to 100 nM.
On the same counts, the results for `CC(C)(C)OC(=O)N1CC=C(c2cc3c(N4CCN(c5ncc([C@@](C)(O)c6ccc(F)cc6)cn5)CC4)ncnn3c2)CC1` [Compound 124] are 1.01 to 10 nM and below 50 nM.
